Assay results published in US20140221639A1, “RADIOLABELED NUCLEOSIDE ANALOGUE, AND PREPARATION METHOD AND USE THEREOF” (Institute of Nuclear Energy Research Atomic Energy Council, …, priority 2011, published 2014).
“And” between values parts separate entries of the source, which are not always exact repeats. Equal values may be shown once. Read-outs that look alike come from different tables or passages of the source.

How the values were obtained:
LL/2 cells = assay: Cellular uptake test (ratio of cell to medium); assay type: cell-based; conditions: 1, 2, 4 and 8 h
Method: (§1) 2×10^6 cells was inoculated in a 15 cm^2 dish containing 14 mL medium supplemented with 10% FBS. […] At specified time points (using I-131 tracer at 1, 2, 4 and 8_h), the cells on the dish was harvested by using a cell scraper. Then, a cell suspension was transferred to a 15 mL centrifuge tube and centrifuged (at 3500 rpm) for 2 min. After centrifugation, 100 μL centrifugate was collected to a preweighed counting tube and directly poured into a maintained medium. Cell pellets were frozen with dry ice, and further collected into another weighed counting tube. […] Accumulation of activity of radioactive trancer in cell in vitro is represented by a radio of cell to medium:
(§2) Uptake experimental results of the two radioactive nucleoside analogues [^131I]IUdR and [^131I]ICdR in cells are as shown in FIGS. 4((a), (b)).

NG4TL4 cells = assay: Cellular uptake test (ratio of cell to medium); assay type: cell-based; conditions: 1, 2, 4 and 8 h
Method: as §1, §2

NG4TL4 sarcoma cells = assay: Study on incorporation in DNA; assay type: cell-based; conditions: 1 μCi/mL medium, 0.5-8 h
Method: DNA was extracted with Genomic DNA Mini Kit (Geneaid Biotech Ltd., Taiwan). NG4TL4 cell lines were harvested and inoculated into a petri dish at 2×10^6. […] At 0.5, 1, 2, 4 and 8 h after incubation, the medium was removed, and the cells was washed two times with ice-cold PBS, and then sheared with trypsin and collected to a centrifuge tube for centrifugation (at […] for 1 min). The supernatant was removed, while 50 μL remaining buffer was left to keep the cells in suspension. 300 μL cell lysis buffer was added to the sample and uniformly mixed, the cells was cultured in a water bath at 60° C. for a sereral minutes till the solution was transparent (the sample was inversed once every 3 min). 2 μL RNAse (25 mg/mL) was added to the sample and uniformly mixed, after 5-min incubation at room temperature, 100 μL protein removal buffer was added to the sample, uniformly mixed immediately, and centrifuged for 3 min at full speed (14000 rpm) after 5-min incubation on ice. The resulting solution was transferred as a suspension to another tube, and isopropanol was added and thoroughly mixed. […] In the test, DNA purity was determined at absorption wavelengths of 260 nm and 280 nm, and the ratio of absorbances (OD260/OD280) was about 1.7.

[1] = Analysis of metabolites in blood and urine through NP-TLC; assay type: in vivo, FVB/N mice; conditions: NP-TLC CH2Cl2/MeOH = 15/1
Method: Blood samples were obtained by heart puncture, and then centrifuged at 13,000 rpm for 10 min. Then, the supernatant (about 300 μL) was placed in a 1.5 mL centrifuge tube containing equal amount of ethanol, and then centrifuged again to obtain the serum.

NG4TL4-WT tumor = assay: Biodistribution study in tumor-bearing mice; assay type: in vivo, FVB/N mice; conditions: for Biodistribution Blood / Biodistribution Bone / Biodistribution Kidney / Biodistribution Large Intestine / Biodistribution Liver / Biodistribution Lung / Biodistribution Marrow / Biodistribution Pancreas / Biodistribution Stomach / Biodistribution Tumor / Biodistribution Heart / Biodistribution Spleen / Biodistribution Small Intestine / Biodistribution Muscle: 80~90 μCi tail vein, FVB/N mice with NG4TL4-WT tumor
Text: […] Tumor and 13 other tissures (blood, heart, lung, liver, stomach, small intestine, large intestine, spleen, pancreas, kidney, bone, marrow, and muscle) were removed, rinsed, weighed, and determined for radioactivity with a γ scintilation counter. Uptake of the radioactive trancers in the tissues (counts per min) was calibrated against decay, normalizedto sample weight, and expressed as percentages of injected dosage per gram of tissue (% ID/g) and aggregation ratio of tumor to blood.

[2] = healthy FVB/N mice, intravenous 200 μCi, blood radioactivity
[3] = in human body, as shown in literatures; cited from earlier work
[4] = in mice, as shown in literatures; cited from earlier work
[5] = literature; cited from earlier work
[6] = 5 min after ^131I-IUdR at tail vein
[7] = 15 min after ^131I-IUdR at tail vein

Structure (SMILES): O=c1[nH]c(=O)n([C@H]2C[C@H](O)[C@@H](CO)O2)cc1[131I] [^131I-IUdR, 5-[^124/131I]iodo-2′-deoxyuridine, reference compound]
- uptake value over time (LL/2 cells): continuously increased with time
- uptake value over time (NG4TL4 cells): continuously increased with time
- incorporation into cells / radioactive accumulation in DNA with time (NG4TL4 sarcoma cells): linearly incorporated
- ^131I-IU (%) in Blood [1, 6]: 3.65 ± 3.03%
- ^131I-IU (%) in Urine [1, 6]: 4.45 ± 3.03%
- ^131I-IUdR (%) in Blood [1, 6]: 25.23 ± 2.88%
- ^131I-IUdR (%) in Urine [1, 6]: 8.60 ± 2.88%
- ^131I-I^- (%) in Blood [1, 6]: 71.1% and 71.12 ± 5.83%
- ^131I-I^- (%) in Urine [1, 6]: 88.0% and 86.96 ± 5.83%
- ^131I-IU (%) in Blood [1, 7]: 1.58 ± 0.72%
- ^131I-IU (%) in Urine [1, 7]: 2.76 ± 1.23%
- ^131I-IUdR (%) in Blood [1, 7]: 6.42 ± 3.89%
- ^131I-IUdR (%) in Urine [1, 7]: 5.23 ± 2.05%
- ^131I-I^- (%) in Blood [1, 7]: 92.00 ± 4.51%
- ^131I-I^- (%) in Urine [1, 7]: 92.02 ± 3.27%
- Biodistribution Blood (NG4TL4-WT tumor; 5 min): 13.62 ± 1.19 % ID/g
- Biodistribution Bone (NG4TL4-WT tumor; 5 min): 233 ± 035 % ID/g
- Biodistribution Kidney (NG4TL4-WT tumor; 5 min): 18.81 ± 2.44 % ID/g
- Biodistribution Large Intestine (NG4TL4-WT tumor; 5 min): 7.18 ± 038 % ID/g
- Biodistribution Liver (NG4TL4-WT tumor; 5 min): 15.99 ± 2.06 % ID/g
- Biodistribution Lung (NG4TL4-WT tumor; 5 min): 933 + 0.69 % ID/g
- Biodistribution Marrow (NG4TL4-WT tumor; 5 min): 3.98 ± 1.44 % ID/g
- Biodistribution Pancreas (NG4TL4-WT tumor; 5 min): 6.43 ± 0.41 % ID/g
- Biodistribution Stomach (NG4TL4-WT tumor; 5 min): 7.04 ± 0.98 % ID/g
- Biodistribution Tumor (NG4TL4-WT tumor; 5 min): 635 ± 1.93 % ID/g
- Biodistribution Blood (NG4TL4-WT tumor; 30 min): 835 ± 132 % ID/g
- Biodistribution Bone (NG4TL4-WT tumor; 30 min): 2.55 ± 030 % ID/g
- Biodistribution Heart (NG4TL4-WT tumor; 30 min): 3.15 ± 0.4S
- Biodistribution Kidney (NG4TL4-WT tumor; 30 min): 6.95 ± 0.77 % ID/g
- Biodistribution Large Intestine (NG4TL4-WT tumor; 30 min): 5.43 ± 0.88 % ID/g
- Biodistribution Liver (NG4TL4-WT tumor; 30 min): 3.73 ± 0.57 % ID/g
- Biodistribution Lung (NG4TL4-WT tumor; 30 min): 5.80 ± 0.42 % ID/g
- Biodistribution Marrow (NG4TL4-WT tumor; 30 min): 538 ± 1.57 % ID/g
- Biodistribution Pancreas (NG4TL4-WT tumor; 30 min): 5.52 ± 0.84 % ID/g
- Biodistribution Spleen (NG4TL4-WT tumor; 30 min): 6.79 ± 1.66 % ID/g
- Biodistribution Stomach (NG4TL4-WT tumor; 30 min): 24.71 ± 3.20 % ID/g
- Biodistribution Tumor (NG4TL4-WT tumor; 30 min): 6.11 ± 0.97 % ID/g
- Biodistribution Blood (NG4TL4-WT tumor; 1 h): 6.41 ± 036 % ID/g
- Biodistribution Bone (NG4TL4-WT tumor; 1 h): 1.59 ± 039 % ID/g
- Biodistribution Heart (NG4TL4-WT tumor; 1 h): 2.43 ± 0.56 % ID/g
- Biodistribution Large Intestine (NG4TL4-WT tumor; 1 h): 4.73 ± 1.16 % ID/g
- Biodistribution Liver (NG4TL4-WT tumor; 1 h): 2.68 ± 0.48 % ID/g
- Biodistribution Marrow (NG4TL4-WT tumor; 1 h): 9.86 ± 4.50 % ID/g
- Biodistribution Pancreas (NG4TL4-WT tumor; 1 h): 2.84 ± 0.57 % ID/g
- Biodistribution Small Intestine (NG4TL4-WT tumor; 1 h): 6.80 ± 0.81 % ID/g
- Biodistribution Spleen (NG4TL4-WT tumor; 1 h): 4.18 ± 035 % ID/g
- Biodistribution Tumor (NG4TL4-WT tumor; 1 h): 6.61 ± 033 % ID/g
- Biodistribution Blood (NG4TL4-WT tumor; 2 h): 4.19 ± 0.60 % ID/g
- Biodistribution Bone (NG4TL4-WT tumor; 2 h): 132 ± 033 % ID/g
- Biodistribution Liver (NG4TL4-WT tumor; 2 h): 1.67 ± 0.18 % ID/g
- Biodistribution Lung (NG4TL4-WT tumor; 2 h): 2.86 ± 0.55 % ID/g
- Biodistribution Marrow (NG4TL4-WT tumor; 2 h): 6.88 ± 1.19 % ID/g
- Biodistribution Muscle (NG4TL4-WT tumor; 2 h): 0.93 ± 0.14 % ID/g
- Biodistribution Pancreas (NG4TL4-WT tumor; 2 h): 2.50 ± 0.58 % ID/g
- Biodistribution Small Intestine (NG4TL4-WT tumor; 2 h): 6.77 ± 1.50 % ID/g
- Biodistribution Spleen (NG4TL4-WT tumor; 2 h): 3.60 ± 0.40 % ID/g
- Biodistribution Stomach (NG4TL4-WT tumor; 2 h): 15.93 + 333 % ID/g
- Biodistribution Tumor (NG4TL4-WT tumor; 2 h): 5.63 ± 0.74 % ID/g
- Biodistribution Blood (NG4TL4-WT tumor; 4 h): 1.96 ± 0.49 % ID/g
- Biodistribution Bone (NG4TL4-WT tumor; 4 h): 0.62 ± 0.29 % ID/g
- Biodistribution Heart (NG4TL4-WT tumor; 4 h): 0.88 ± 0.46 % ID/g
- Biodistribution Kidney (NG4TL4-WT tumor; 4 h): 1.77 ± 0.71 % ID/g
- Biodistribution Lung (NG4TL4-WT tumor; 4 h): 1.60 ± 0.71 % ID/g
- Biodistribution Marrow (NG4TL4-WT tumor; 4 h): 6.63 ± 3.84 % ID/g
- Biodistribution Muscle (NG4TL4-WT tumor; 4 h): 0.53 ± 0.26 % ID/g
- Biodistribution Pancreas (NG4TL4-WT tumor; 4 h): 1.18 ± 0.56 % ID/g
- Biodistribution Small Intestine (NG4TL4-WT tumor; 4 h): 4.76 ± 1.26 % ID/g
- Biodistribution Spleen (NG4TL4-WT tumor; 4 h): 1.86 ± 0.63 % ID/g
- Biodistribution Stomach (NG4TL4-WT tumor; 4 h): 4.49 ± 3.02 % ID/g
- Biodistribution Tumor (NG4TL4-WT tumor; 4 h): 3.97 ± 1.00 % ID/g
- Biodistribution Blood (NG4TL4-WT tumor; 8 h): 0.48 ± 0.23 % ID/g
- Biodistribution Bone (NG4TL4-WT tumor; 8 h): 036 ± 0.12 % ID/g
- Biodistribution Heart (NG4TL4-WT tumor; 8 h): 0.19 ± 0.09 % ID/g
- Biodistribution Kidney (NG4TL4-WT tumor; 8 h): 0.56 ± 0.21 % ID/g
- Biodistribution Large Intestine (NG4TL4-WT tumor; 8 h): 1.78 ± 0.57 % ID/g
- Biodistribution Lung (NG4TL4-WT tumor; 8 h): 0.44 ± 0.21 % ID/g
- Biodistribution Marrow (NG4TL4-WT tumor; 8 h): 5.00 ± 1.59 % ID/g
- Biodistribution Muscle (NG4TL4-WT tumor; 8 h): 0.13 ± 0.03 % ID/g
- Biodistribution Small Intestine (NG4TL4-WT tumor; 8 h): 3.40 ± 0.60 % ID/g
- Biodistribution Tumor (NG4TL4-WT tumor; 8 h): 2.50 ± 0.79 % ID/g
- excretion of drug and metabolites (NG4TL4-WT tumor; mice): mainly through the urinary system
- accumulation in organs (biodistribution and imaging) (NG4TL4-WT tumor; tumor-bearing mice): obviously accumulated in organs that rapidly proliferates
- Cmax [2]: 18.91 ± 6.16 % ID/mL
- t1/2α [2]: 4.8 ± 1.2 min
- t1/2β [2]: 2.28 ± 0.90 h
- Cmax ([2]; listed as 131I-IudR): 18.91±6.16 % ID/mL
- t1/2α ([2]; listed as 131I-IudR): 4.8 ± 1.2 min
- t1/2β ([2]; listed as 131I-IudR): 2.28 ± 0.90 h

Structure (SMILES): O=c1[nH]c(=O)n([C@H]2C[C@H](O)[C@@H](CO)O2)cc1I [IUdR]
- in vivo physiological half life [3]: 5 min
- in vivo physiological half life [4]: 7 min

Structure (SMILES): Cc1cn([C@@H]2O[C@H](CO)[C@@H](O)[C@@H]2[18F])c(=O)[nH]c1=O [[^18F]FMAU, 2-[^18F]fluoro-5-methyl-1-β-D-arabinofuranosyluracil]
- stability in the organism [5]: very stable
